The numbers were not newly measured in patent publication US20240156829A1, “Stable Antiemetic Emulsions for Parenteral Administration” (Slayback Pharma LLC, priority 2022, published 2024), which cites them from elsewhere.

The structures appear in SMILES notation. Structures can show the parent of a compound that is named as a salt.

The conditions of data set [1]: by light or oxygen or heavy metals.
The conditions of data set [2]: in vivo.

For the compound `C[C@@H](O[C@H]1OCCN(Cc2n[nH]c(=O)[nH]2)[C@H]1c1ccc(F)cc1)c1cc(C(F)(F)F)cc(C(F)(F)F)c1` [Aprepitant, 5-([(2R, 3S)-2-((R)-1-[3,5-bis (trifluoromethyl)phenyl]ethoxy)-3-(4-fluoro-phenyl)morpholino]methyl)-1H-1,2,4-triazol-3(2H)-one], the solubility result is on record as “very poor”. The term half-life denotes how long it takes for the measured level to halve. Consider `O=C1c2cccc3c2[C@H](CCC3)CN1[C@@H]1CN2CCC1CC2` [Palonosetron hydrochloride, (3aS)-2-[(3S)-1-azabicyclo [2.2.2]octan-3-yl]-3a,4,5,6-tetrahydro-3H-benzo[de] isoquinolin-1-one; hydrochloride], for which the “Stability in a liquid medium” value in data set [1] is “easily oxidized and degraded”. In addition, the half-life in data set [2] is 40 h.
